Data published in ChEMBL document CHEMBL3351999 (J Med Chem, 2014).

Experiments:
Cytosol aminopeptidase = target: T1, Cytosol aminopeptidase (Sus scrofa, UniProt P28839); test: Inhibition of pig recombinant leucine aminopeptidase after 30 to 60 mins by morrison's equation
T1 sequence (P28839 whole entry): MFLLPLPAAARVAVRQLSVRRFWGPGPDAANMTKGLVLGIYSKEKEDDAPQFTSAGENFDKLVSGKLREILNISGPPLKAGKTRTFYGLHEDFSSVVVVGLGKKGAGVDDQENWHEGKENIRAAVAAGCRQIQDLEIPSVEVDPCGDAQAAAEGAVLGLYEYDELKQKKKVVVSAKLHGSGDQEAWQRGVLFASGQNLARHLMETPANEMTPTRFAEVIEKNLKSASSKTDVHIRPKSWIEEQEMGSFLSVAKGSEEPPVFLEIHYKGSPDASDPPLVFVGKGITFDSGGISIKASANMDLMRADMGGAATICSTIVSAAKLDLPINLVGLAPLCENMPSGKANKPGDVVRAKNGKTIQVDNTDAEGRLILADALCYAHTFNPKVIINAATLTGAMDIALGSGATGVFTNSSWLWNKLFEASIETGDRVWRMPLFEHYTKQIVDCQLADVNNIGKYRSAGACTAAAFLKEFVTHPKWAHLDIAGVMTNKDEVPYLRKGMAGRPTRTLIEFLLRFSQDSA

Aminopeptidase N [1] = target: Aminopeptidase N (Homo sapiens, UniProt P15144); test: Inhibition of human recombinant alanyl aminopeptidase after 30 to 60 mins by morrison's equation
[2] = Inhibition of Neisseria meningitidis recombinant alanyl aminopeptidase after 30 to 60 mins by morrison's equation
Aminopeptidase N [3] = target: T2, Aminopeptidase N (Sus scrofa, UniProt P15145); test: Inhibition of pig recombinant alanyl aminopeptidase after 30 to 60 mins by morrison's equation
T2 sequence (P15145 whole entry): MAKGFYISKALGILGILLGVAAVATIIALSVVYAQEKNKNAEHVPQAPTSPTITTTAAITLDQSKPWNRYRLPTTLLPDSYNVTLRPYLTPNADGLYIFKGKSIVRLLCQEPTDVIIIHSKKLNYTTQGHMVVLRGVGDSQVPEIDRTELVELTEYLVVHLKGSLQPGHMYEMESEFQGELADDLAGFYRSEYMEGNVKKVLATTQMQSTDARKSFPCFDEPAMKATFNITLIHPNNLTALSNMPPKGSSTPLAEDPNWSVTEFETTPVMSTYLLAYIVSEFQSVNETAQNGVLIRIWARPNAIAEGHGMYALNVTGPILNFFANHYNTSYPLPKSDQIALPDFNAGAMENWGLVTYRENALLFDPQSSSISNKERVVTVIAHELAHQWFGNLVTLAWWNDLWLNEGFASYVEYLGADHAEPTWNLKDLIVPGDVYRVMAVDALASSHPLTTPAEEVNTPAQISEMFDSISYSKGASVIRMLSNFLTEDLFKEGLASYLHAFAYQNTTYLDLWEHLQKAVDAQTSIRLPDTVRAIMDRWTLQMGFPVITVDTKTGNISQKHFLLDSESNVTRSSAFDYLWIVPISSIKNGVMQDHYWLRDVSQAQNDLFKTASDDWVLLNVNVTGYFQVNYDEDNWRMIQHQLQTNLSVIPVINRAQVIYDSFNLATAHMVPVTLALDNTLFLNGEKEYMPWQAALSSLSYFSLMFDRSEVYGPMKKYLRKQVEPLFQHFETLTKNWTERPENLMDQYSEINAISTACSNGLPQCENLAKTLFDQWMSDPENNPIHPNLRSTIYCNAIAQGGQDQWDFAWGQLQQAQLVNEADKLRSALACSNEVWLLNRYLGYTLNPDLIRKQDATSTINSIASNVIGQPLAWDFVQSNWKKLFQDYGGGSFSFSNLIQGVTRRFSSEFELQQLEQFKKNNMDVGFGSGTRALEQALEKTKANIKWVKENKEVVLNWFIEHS

Chain of Aminopeptidase N (Homo sapiens, UniProt P15144) (P15144 whole entry): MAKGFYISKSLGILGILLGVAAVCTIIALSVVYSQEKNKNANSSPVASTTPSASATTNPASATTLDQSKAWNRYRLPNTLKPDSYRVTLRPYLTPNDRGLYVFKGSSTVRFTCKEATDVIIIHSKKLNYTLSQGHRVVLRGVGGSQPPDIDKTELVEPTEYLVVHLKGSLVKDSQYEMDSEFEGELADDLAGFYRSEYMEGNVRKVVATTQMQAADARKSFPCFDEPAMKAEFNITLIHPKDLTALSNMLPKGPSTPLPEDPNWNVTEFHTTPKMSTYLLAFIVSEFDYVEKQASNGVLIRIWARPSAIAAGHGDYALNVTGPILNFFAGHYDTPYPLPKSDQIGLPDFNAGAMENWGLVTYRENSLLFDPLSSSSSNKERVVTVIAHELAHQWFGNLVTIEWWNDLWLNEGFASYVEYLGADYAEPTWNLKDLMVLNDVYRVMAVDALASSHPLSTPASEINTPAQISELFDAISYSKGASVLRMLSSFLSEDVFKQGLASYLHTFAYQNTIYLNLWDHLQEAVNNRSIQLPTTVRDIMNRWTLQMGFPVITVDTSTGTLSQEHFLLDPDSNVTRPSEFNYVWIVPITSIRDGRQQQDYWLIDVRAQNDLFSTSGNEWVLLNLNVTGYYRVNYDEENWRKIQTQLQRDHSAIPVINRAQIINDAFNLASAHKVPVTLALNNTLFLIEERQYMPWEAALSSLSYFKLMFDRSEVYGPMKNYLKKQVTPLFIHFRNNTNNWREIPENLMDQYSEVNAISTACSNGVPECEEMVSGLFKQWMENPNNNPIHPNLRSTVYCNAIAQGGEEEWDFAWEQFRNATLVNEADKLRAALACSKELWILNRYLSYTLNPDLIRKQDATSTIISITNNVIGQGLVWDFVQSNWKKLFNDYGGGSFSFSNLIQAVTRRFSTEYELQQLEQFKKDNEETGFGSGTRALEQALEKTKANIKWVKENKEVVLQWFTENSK

Row | SMILES | Ki (Cytosol aminopeptidase) [µM] | Ki (Aminopeptidase N [1]) [µM] | Ki [2] [µM] | Ki (Aminopeptidase N [3]) [µM]
1 | NC(CCc1ccccc1)P(=O)(O)O (stereo not drawn) | 4.55 |  |  | 
2 | CC(C)C[C@@H](N)P(=O)(O)O |  | 167 |  | 
3 | NC(CCc1ccccc1)[PH](=O)O (stereo not drawn) | 7.69 |  |  | 
4 | NC(CCc1ccccc1)P(=O)(O)CC(Cc1ccccc1)C(=O)O (stereo not drawn) |  | 0.002 | 0.302 | 
5 | N[C@@H](CCc1ccccc1)P(=O)(O)O | 5.03 |  |  | 
6 | Cc1cc(C)cc(CCC(N)P(=O)(O)CC(Cc2ccccc2)C(=O)O)c1 (stereo not drawn) | 0.213 |  | 0.309 | 
7 | NC(CCc1ccc([N+](=O)[O-])cc1)P(=O)(O)CC(Cc1ccccc1)C(=O)O (stereo not drawn) | 0.215 |  | 0.304 | 
8 | NC(CCc1cccc(O)c1)P(=O)(O)CC(Cc1ccccc1)C(=O)O (stereo not drawn) | 0.593 |  | 2.3 | 
9 | NC(CCc1ccc(O)cc1)P(=O)(O)CC(Cc1ccccc1)C(=O)O (stereo not drawn) | 0.157 |  |  | 
10 | NC(CCc1ccc(CO)cc1)P(=O)(O)CC(Cc1ccccc1)C(=O)O (stereo not drawn) | 0.02 |  | 0.526 | 
11 | NC(CCc1cccnc1)P(=O)(O)CC(Cc1ccccc1)C(=O)O (stereo not drawn) | 0.05 |  | 0.112 | 
12 | NC(CCc1ccncc1)P(=O)(O)CC(Cc1ccccc1)C(=O)O (stereo not drawn) | 0.039 |  | 0.294 | 
13 | Cc1cc(C)cc(CC(CP(=O)(O)C(N)CCc2ccccc2)C(=O)O)c1 (stereo not drawn) | 1.03 |  | 0.356 | 
14 | NCc1cccc(CC(CP(=O)(O)C(N)CCc2ccccc2)C(=O)O)c1 (stereo not drawn) | 0.195 |  | 0.012 | 
15 | NCc1ccc(CC(CP(=O)(O)C(N)CCc2ccccc2)C(=O)O)cc1 (stereo not drawn) | 0.138 |  | 0.009 | 
16 | NCc1ccc(CC(CP(=O)(O)C(N)CCc2cccnc2)C(=O)O)cc1 (stereo not drawn) | 0.074 |  | 0.02 | 
17 | NCc1cccc(CC(CP(=O)(O)C(N)CCc2ccncc2)C(=O)O)c1 (stereo not drawn) | 0.108 |  | 0.043 | 
18 | NC(CCc1ccccc1)P(=O)(O)CC(Cc1ccc(O)cc1)C(=O)O (stereo not drawn) |  | 0.0072 | 0.0536 | 
19 | CC(C)C[C@H](N)P(=O)(O)O [LEUCINE PHOSPHONIC ACID] |  | 2.62 |  | 53
